Data published in US10059676B2, “Process for preparing a novel crystalline form of iodosulfuron-methyl-sodium and use of the same” (ROTAM AGROCHEM INTERNATIONAL COMPANY LIMITED, priority 2015, dated 2018).

Test: Stability test: accelerated storage of formulations, relative percentage of hydrolysis (RPH) by HPLC (CIPAC MT 46.3)
Assay type: physicochemical
Settings: for stability (hydrolysis), in words: general statement, in water, on storage, in formulations; for RPH % (relative percentage of hydrolysis): stored at 54° C. for 1 week
Protocol: The stability of the iodosulfuron-methyl-sodium in these compositions was determined by aging samples in heated ovens having the same atmosphere therein, and then comparing the iodosulfuron-methyl-sodium content before and after the aging to determine relative percentage of hydrolysis (RPH). RPH was calculated by the following equation: […]
Iodosulfuron-methyl-sodium content was determined by assaying the compositions with high-pressure liquid chromatography (HPLC) using reverse phase columns and eluants.
Samples prepared in Examples 4, 5 and 6 were stored at 54° C. for 1 week. The procedures are followed according to CIPAC MT 46.3. The concentration of iodosulfuron-methyl-sodium was measured at the end of each storage time by HPLC.

[1] = oil based suspension concentrate (OD) of Example 4, 40 wt% iodosulfuron-methyl-sodium
[2] = soluble granules (SG) of Example 5, 25 wt% iodosulfuron-methyl-sodium
[3] = water dispersible granules (WG) of Example 6, 25 wt% iodosulfuron-methyl-sodium

Row | Compound | stability (hydrolysis), in words (listed as crystalline modification I of iodosulfuron-methyl-sodium) | RPH % (relative percentage of hydrolysis) [1] [%] | RPH % (relative percentage of hydrolysis) [2] [%] | RPH % (relative percentage of hydrolysis) [3] [%] | stability (hydrolysis), in words (listed as iodosulfuron-methyl-sodium in the amorphous state)
1 | COC(=O)c1ccc(I)cc1S(=O)(=O)NC(=O)[N-]c1nc(C)nc(OC)n1.[Na+] [Iodosulfuron-methyl-sodium, crystalline modification I] [sodium salt of methyl 4-iodo-2-[[[[(4-methoxy-6-methyl-1,3,5-triazin-2-yl)amino]carbonyl]amino]sulfonyl]benzoate] | significant increase in its stability | 0 | 0 | 0 | –
2 | COC(=O)c1ccc(I)cc1S(=O)(=O)NC(=O)[N-]c1nc(C)nc(OC)n1.[Na+] [Amorphous iodosulfuron-methyl-sodium, sodium salt of methyl 4-iodo-2-[[[[(4-methoxy-6-methyl-1,3,5-triazin-2-yl)amino]carbonyl]amino]sulfonyl]benzoate] | – | 49 | 42 | 40 | highly unstable
